According to patent publication US9643933B2, “Compounds useful as antibiotic tolerance inhibitors” (priority 2013, dated 2017):
Like-named read-outs stand apart in the source and are kept apart here.

Legend:
Pyocyanin = Pyocyanin Inhibition Assay; format: cell-based, P. aeruginosa, strain PA14
Procedure, shortened: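 P. aeruginosa PA14 at OD600=0.04 in LB grown 24 h at 37° C with shaking alongside compound (0.0032-31.6 micromolar, seven points, 0.5% DMSO final). Pyocyanin in supernatant quantified from A690 (ε 4,310 M^−1 cm^−1); % inhibition versus untreated culture, IC50 by four-parameter logistic fit.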

PQS = PQS Inhibition Assay (24 Hour Incubation); format: cell-based, P. aeruginosa PA14 wild-type strain
Method: Test compounds are dissolved in DMSO at 10 mM and stored at −20° C. until needed. Seven test concentrations from 0.0032 micromolar to 31.6 micromolar are used for each compound. P. aeruginosa PA14 wild-type strain is inoculated into 5 mL LB broth in a 15-mL sterile glass culture tube and incubated overnight at 37° C. under shaking (˜240 rpm). The overnight culture is then diluted in LB Broth to give an OD600=0.04 (T0 culture). Colony Forming Units (CFU)/mL of the overnight culture and T0 culture are determined by a series of 1:10 serial dilutions in sterile saline. 4×20 μL of each dilution is seeded on LB agar plates and incubated at 35±2° C. for 20 hours. CFU/mL is determined from the dilution that gives 2 to 50 colonies/20 μL.
For concentration response curve (CRC) experiments, internal standard (2-((5-nitro-1H-indol-2-yl)thio)-N-(4-phenoxyphenyl)acetamide)) and test compounds are serially diluted in DMSO to give 200 times of each final concentration (0.5% DMSO final), and 1 μL/well is dispensed in duplicate into 2-mL wells of a 96 well deep well plate. 200 μL/well of T0 culture is added to each internal standard/test compound well used to determine PQS control level. Wells containing only LB broth (blank wells) are also included in the plate.
The plate is sealed and incubated at 37° C. for 24 hours under shaking (˜700 rpm) using a microtiter shaker. At the end of the incubation period, 150 μL/well of the deep well plate culture are transferred in a new non-sterile plate, and 150 μL/well of methanol containing tetra-deuterated PQS (D4-PQS) and 2% acetic acid are added to each well. The plate is sealed, shaken at high speed for 5 minutes and centrifuged at 4,000 g for 40 minutes at room temperature. 100 μL/well of the supernatant is then transferred to glass vials (vials crimp 0.2 mL) and kept at 4° C. until LC-MS/MS analysis.
PQSs quantification is carried out by analyzing samples in discrete batches together with spiked standards and blank samples.
Calibration curves are constructed from PQS standards, and respective deuterated PQS is used as an Internal Standards (IS) to calculate the concentration of analytes in the sample and improve the precision of the assay. The back-calculated concentrations of the calibration standards from the calibration curve shall be within ±20% of the nominal values, the range of the analytical method is determined, and the lower and upper limit of quantification specified.
Liquid chromatography separations are performed using an Agilent HP1100 system (Agilent Technologies) coupled with a CTC PAL Autosampler (CTC Analytics AG). Chromatographic retention is obtained using a monolithic column (Chromolith® RP-18, 50×4.6 mm). The solvent system consists of water containing 0.1% (v/v) formic acid (A) and acetonitrile containing 0.1% (v/v) formic acid (B). The gradient elution profile is chosen as follows: 0 min: 70% A (1500 μL/min), 0.3 min: 70% A (1500 μL/min), 1.3 min: 5% A (2500 μL/min), 1.6 min: 5% A (2500 μL/min).
The MS/MS analysis is performed with an API4000 series mass spectrometer (AB Sciex™) operating in Multiple Reaction Monitoring (MRM) mode and equipped with a TIS ion source. The specific ions monitored are PQS (m/z 260→m/z 175) and D4-PQS (m/z 264→m/z 179). The computer systems used in this study to acquire and quantify data may be an Analyst™ v1.5.
PQS in the presence of different concentrations of test compound are expressed as percentage of inhibition of the basal level in control samples. Curve fitting and IC50 estimations are carried out using a four parameter logistic model using GraphPad Prism v.5 program.

[1] = Pseudomonas aeruginosa, PA14, 24 h, read-out: Pyocyanin Inhibition No. IC50 (μM)
[2] = Pseudomonas aeruginosa, PA14, 24 h, read-out: PQS (24 hr) IC50 (μM)

Row | Molecule | IC50 (Pyocyanin; [1]) [µM] | IC50 (PQS; [2]) [µM] | IC50 (Pyocyanin; P. aeruginosa PA14 culture, 24 hours at 37° C., pyocyanin in supernatant by absorbance at 690 nm, read-out: Pyocyanin Inhibition No. IC50) [µM] | IC50 (PQS; P. aeruginosa PA14 culture, 24 hours incubation, PQS by LC-MS/MS, read-out: PQS (24 hr) IC50) [µM]
1 | O=C(CSc1nc2ccc(Cl)cc2[nH]1)Nc1ccc(Cl)cc1 [Compound 137] | 0.1 to 1 | 1 to 5 | – | –
2 | N#Cc1ccc(NC(=O)CSc2nc3cc(C(F)(F)F)ccc3[nH]2)cc1 [Compound 56] | < 0.1 | < 1 | – | –
3 | O=C(CCc1nc2cc(Cl)ccc2s1)Nc1ccc(Oc2cccnc2)cc1 [Compound 85, 3-(5-chlorobenzo[d]thiazol-2-yl)-N-(4-(pyridin-3-yloxy)phenyl)propanamide] | 0.1 to 1 | > 10 | – | –
4 | 2-((5-chloro-1H-benzo[d]imidazol-2-yl)thio)-N-(4-(pyrimidin-5-yloxy)phenyl)acetamide [Compound 79] | – | – | < 0.1 | < 1
5 | O=C(CSc1nc2cc(C(F)(F)F)ccc2[nH]1)Nc1ccc(Cl)cc1 [Compound 105] | 0.1 to 1 | 1 to 5 | – | –
6 | O=C(CNc1nc2cc(Cl)ccc2o1)Nc1ccc(Oc2cccnc2)cc1 [Compound 74, 2-((5-chlorobenzo[d]oxazol-2-yl)amino)-N-(4-(pyridin-3-yloxy)phenyl)acetamide] | 0.1 to 1 | 1 to 5 | – | –
7 | O=C(CSc1nc2cc(F)ccc2[nH]1)Nc1ccc(Cl)cc1 [Compound 110] | 0.1 to 1 | 5 to 10 | – | –
8 | O=C(CSc1nc2ccc(Br)cc2[nH]1)Nc1ccc(Cl)cc1 [Compound 145] | 0.1 to 1 | > 10 | – | –
9 | N#Cc1ccc2nc(SCC(=O)Nc3ccc(Cl)cc3)[nH]c2c1 [Compound 94] | 0.1 to 1 | 1 to 5 | – | –
10 | O=C(CSc1nc2cc(F)c(F)cc2[nH]1)Nc1ccc(Br)cc1 [Compound 126] | 0.1 to 1 | > 10 | – | –
11 | N#Cc1ccc(NC(=O)CSc2nc3cc(Br)ccc3[nH]2)cc1 [Compound 96] | < 0.1 | < 1 | – | –
12 | O=C(CCc1nc2ccc(Cl)cc2[nH]1)Nc1ccc(Oc2cccnc2)cc1 [Compound 152, 3-(5-chloro-1H-benzo[d]imidazol-2-yl)-N-(4-(pyridin-3-yloxy)phenyl)propanamide] | 0.1 to 1 | 1 to 5 | – | –
13 | N#Cc1ccc(NC(=O)CSc2nc3cc(Br)ccc3o2)cc1 [Compound 147] | 0.1 to 1 | 1 to 5 | – | –
14 | O=C(CNc1nc2cc(Cl)ccc2s1)Nc1ccc(Oc2cccnc2)cc1 [Compound 71, 2-((5-chlorobenzo[d]thiazol-2-yl)amino)-N-(4-(pyridin-3-yloxy)phenyl)acetamide] | 0.1 to 1 | 5 to 10 | – | –
15 | N#Cc1ccc(NC(=O)CSc2nc3cc(Cl)ccc3[nH]2)cc1Cl [Compound 142] | 0.1 to 1 | < 1 | – | –
16 | O=C(CCc1nc2ccc(Cl)cc2s1)Nc1ccc(Oc2cccnc2)cc1 [Compound 86, 3-(6-Chlorobenzo[d]thiazol-2-yl)-N-(4-(pyridin-3-yloxy)phenyl)propanamide] | 0.1 to 1 | > 10 | – | –
17 | COc1ccc(NC(=O)CSc2nc3ccc(Cl)cc3[nH]2)cc1 [Compound 140] | 0.1 to 1 | 5 to 10 | – | –
18 | N#Cc1ccc(NC(=O)CSc2nc3cc(OC(F)F)ccc3[nH]2)cc1 [Compound 104] | 0.1 to 1 | 5 to 10 | – | –
19 | O=C(CSc1nc2cc(Cl)ccc2[nH]1)Nc1ccc(Oc2ccc(Cl)nc2)cc1 [Compound 84, 2-((5-chloro-1H-benzo[d]imidazol-2-yl)thio)-N-(4-((6-chloropyridin-3-yl)oxy)phenyl)acetamide] | < 0.1 | 1 to 5 | – | –
20 | N#Cc1ccc(NC(=O)CSc2nc3cc(F)ccc3[nH]2)cc1 [Compound 57] | 0.1 to 1 | 1 to 5 | – | –
21 | N#Cc1ccc(NC(=O)CSc2nc3ccc(C#N)cc3[nH]2)cc1 [Compound 93] | 0.1 to 1 | < 1 | – | –
22 | N#Cc1ccc(NC(=O)CSc2nc3cc(Cl)ccc3[nH]2)cc1 [Compound 125] | < 0.1 | < 1 | – | –
23 | O=C(CSc1nc2cc(Cl)ccc2[nH]1)Nc1ccc(Oc2cccnc2Cl)cc1 [Compound 83, 2-((5-chloro-1H-benzo[d]imidazol-2-yl)thio)-N-(4-((2-chloropyridin-3-yl)oxy)phenyl)acetamide] | < 0.1 | < 1 | – | –
24 | O=C(CSc1nc2cc(Cl)ccc2[nH]1)Nc1ccc(Oc2cccnc2)cc1 [Compound 77, 2-((5-chloro-1H-benzo[d]imidazol-2-yl)thio)-N-(4-(pyridin-3-yloxy)phenyl)acetamide] | < 0.1 | < 1 | – | –
25 | O=C(CSc1nc2ccc(-n3cccn3)cc2[nH]1)Nc1ccc(Cl)cc1 [Compound 116] | 0.1 to 1 | > 10 | – | –
